Laboratory results taken from patent US8629283B2, “Compounds that modulate negative-sense, single-stranded RNA virus replication and uses thereof” (Icahn School of Medicine at Mount Sinai, priority 2008, dated 2014).
Like-named read-outs stand apart in the source and are kept apart here. Marks after values point to notes of the source that are not given here.

Experiments:
[1] = system: influenza A virus (FluA); assay: in vitro; details: human
[2] = system: A549 cells; details: for concentrations found non-toxic / not decreasing cell viability, up to: A549 cells, 24 h, MTS assay
[3] = in vitro; details: human
[4] = system: influenza A virus (FluA); assay: microbe, parasite or virus in culture; details: A549, read-out: IC50 (A549)
[5] = system: influenza A virus (FluA)
[6] = system: influenza A/WSN/33 virus; assay type: cell-based
[7] = system: influenza A/WSN/33 virus
[8] = system: vesicular stomatitis virus (VSV); assay type: cell-based
[9] = system: Newcastle disease virus (NDV/B1); assay type: cell-based
[10] = system: influenza B/Yamagata/88 virus; assay type: cell-based
[11] = system: influenza A/WSN/33 virus; assay: microbe, parasite or virus in culture; details: A549, 24 h
[12] = molecular target: influenza viral RNA polymerase (Influenza A virus, UniProt P03427+P03430+P15659); assay type: cell-based
[13] = system: influenza A/Wyoming/03/2003 virus; assay type: cell-based
[14] = system: influenza A/Moscow/10/99 virus; assay type: cell-based
[15] = read-out: IC50 (compound concentration of 50% inhibition of viral replication)

For Cc1[nH]c2ccc(-c3nnc(SCC(=O)N4CCCCCC4)o3)cc2c1C [A3-6, 1-(azepan-1-yl)-2-(5-(2,3-dimethyl-1H-indol-5-yl)-1,3,4-oxadiazol-2-ylthio)ethanone], the selectivity ratio [1] was 180, the “CC10 (A549), concentration of 10% cytotoxicity” value (shortened to “CC10 … of 10% cytotoxicity”) ([2]; human) was 18.2 µM and the CC50 [3] was 179 µM. For the same compound, the IC50 [4] was 0.98 µM and the “Inhibition of FluA (Table 5)” value [5] was roughly 87.5%**.

For lanatoside C, the “HTS result (luciferase signal of influenza mini-genome reporter)” value (“HTS result” below) [6] was “potential influenza virus inhibitors”, the “decrease of viral titer compared to untreated control” value [7] was 95.9% and the CC50 [2] was 0.21 µM. For the same compound, the “concentration that maintained at least an 80% cell viability (CC20)” value [2] was 0.078 µM, the “inhibition of VSV replication” value [8] was “significantly inhibited” and the “inhibition of NDV replication” value [9] was “significantly inhibited”.

In the case of CN(Cc1ccccc1)c1nc(-c2ccc([N+](=O)[O-])cc2)cs1 [A35-1, N-methyl-4-(4-nitrophenyl)-N-(phenylmethyl)-2-thiazolamine], the selectivity ratio [1] is reported as 62, the “CC10 … of 10% cytotoxicity” value ([2]; human) is reported as 10.8 µM and the CC50 [3] is reported as 201 µM. The IC50 [4] was 3.24 µM and the “Inhibition of FluA (Table 5)” value [5] was roughly 75%**.

In the case of CC(=O)c1c(O)c(C)c(O)c(Cc2c(O)c3c(c(C(=O)/C=C/c4ccccc4)c2O)OC(C)(C)C=C3)c1O [rottlerin], the “HTS result” value [6] is reported as “potential influenza virus inhibitors”, the “SI [CC50/IC50] selective index” value [7] is reported as 39 and the “reduction in viral titer compared to untreated control” value (from here on “reduction in viral titer”) [7] is reported as 93%. The “concentrations found non-toxic / not decreasing cell viability, up to” value [2] was “up to 1.28 μM”, the “reduction in viral titer” value [10] was 80% and the IC50 [11, 15] was 0.46 µM. It also gave an IC50 ([11]; read-out: IC50 (half maximal inhibitory concentration)) of 0.465 µM.

For CN(c1ccc(O)cc1)c1nc(-c2ccc(Cl)cc2)cs1 [A35-4, 4-[[4-(4-chlorophenyl)-1,3-thiazol-2-yl](methyl)amino]phenol], the selectivity ratio [1] was 5, the “CC10 … of 10% cytotoxicity” value ([2]; human) was 6 µM and the CC50 [3] was 30 µM. For the same compound, the IC50 [4] was 6 µM and the “Inhibition of FluA (Table 5)” value [5] was roughly 50%**.

With NC(=O)c1ncn([C@@H]2O[C@H](CO)[C@@H](O)[C@H]2O)n1 [ribavirin, reference compound] the “inhibition of viral RNA polymerase activity” value [12] was 90%.

In the case of C[C@@H]1O[C@@H](O[C@H]2C[C@@H](O)[C@]3(CO)[C@H]4[C@H](O)C[C@]5(C)[C@@H](C6=CC(=O)OC6)CC[C@]5(O)[C@@H]4CC[C@]3(O)C2)[C@H](O)[C@H](O)[C@H]1O [ouabain], the “HTS result” value [6] is reported as “potential influenza virus inhibitors”, the “decrease of viral titer compared to untreated control” value [7] is reported as 99.1% and the CC50 ([2]; human) is reported as 0.047 µM. For the same compound, the “concentration that maintained at least an 80% cell viability (CC20)” value ([2]; human) was 0.02 µM, the “inhibition of VSV replication” value [8] was “significantly inhibited” and the “inhibition of NDV replication” value [9] was “significantly inhibited”.

In the case of COc1ccc(-c2nnc(SCC(=O)N3CCCC3)o2)cc1 [A3-8], the “CC10 … of 10% cytotoxicity” value ([2]; human) is reported as 11.8 µM, the CC50 [3] is reported as 250 µM and the “Inhibition of FluA (Table 5)” value [5] is reported as “none**”.

For C=C(C)[C@@]12O[C@@]3(c4ccccc4)O[C@@H]1[C@@H]1[C@@H]4O[C@]4(CO)[C@@H](O)[C@]4(O)C(=O)C(C)=C[C@H]4[C@@]1(O3)[C@H](C)[C@H]2OC(=O)/C=C/C=C/c1ccccc1 [mezerein], the “maximum viral titer compared to untreated cells” value [13] was “significant increase”, the “increase in viral titers in Vero cells” value [7] was 15 fold and the “increase of viral titer compared to untreated cells” value (“increase of viral titer” for short) [7] was 17 fold. The “increase of viral titer” value [10] was 8 fold and the “maximum viral titer compared to untreated cells” value [14] was “significant increase”.

For N/C(=N\C(=O)c1nc(Cl)c(N)nc1N)NCc1ccc(Cl)c(Cl)c1 [3′,4′-dichlorobenzamil], the “efficiency of growth enhancement relative to 2′,4′-dichlorobenzamil” value [7] was 10 times less efficient and the “influenza virus growth versus untreated control” value [7] was “boost influenza virus replication”.

With Cc1[nH]c2ccc(-c3nnc(SCC(=O)N4CCOCC4)o3)cc2c1C [A3-5, 2-(5-(2,3-dimethyl-1H-indol-5-yl)-1,3,4-oxadiazol-2-ylthio)-1-morpholinoethanone] the selectivity ratio [1] was 514, the “CC10 … of 10% cytotoxicity” value ([2]; human) was 10.2 µM and the CC50 [3] was 257 µM. The IC50 [4] was 0.5 µM and the “Inhibition of FluA (Table 5)” value [5] was roughly 97%**.

For CN(c1nc(-c2ccccc2)cs1)C1CCS(=O)(=O)C1 (stereo not drawn) [A35-2], the “CC10 … of 10% cytotoxicity” value ([2]; human) was 12.2 µM, the CC50 [3] was 148 µM and the “Inhibition of FluA (Table 5)” value [5] was “none**”.

With C[C@]12CC[C@H]3[C@@H](CC[C@]4(O)C[C@@H](O)CC[C@]34C=O)[C@@]1(O)CC[C@@H]2C1=CC(=O)OC1 [strophanthidin] the “HTS result” value [6] was “potential influenza virus inhibitors”.

In the case of Cc1[nH]c2ccc(-c3nnc(SCC(=O)N4CCc5ccccc54)o3)cc2c1C [A3-3, 2-(5-(2,3-dimethyl-1H-indol-5-yl)-1,3,4-oxadiazol-2-ylthio)-1-(indolin-1-yl)ethanone], the selectivity ratio [1] is reported as 8, the “CC10 … of 10% cytotoxicity” value ([2]; human) is reported as 8.5 µM and the CC50 [3] is reported as 65 µM. The IC50 [4] was 8.5 µM and the “Inhibition of FluA (Table 5)” value [5] was roughly 50%**.

With N#Cc1cc2c(OCC(O)CN3CCN(C(c4ccccc4)c4ccccc4)CC3)cccc2[nH]1 (stereo not drawn) [SDZ-201106] the “HTS result” value [6] was “potential influenza virus inhibitors”, the “SI [CC50/IC50] selective index” value [7] was 7 and the “reduction in viral titer” value [7] was 85%. The IC50 [7, 15] was 4.1 µM, the “concentrations found non-toxic / not decreasing cell viability, up to” value [2] was “up to 12.5 μM” and the “reduction in viral growth/titer compared to untreated control” value [10] was 72%.

With O=C(CSc1nnc(-c2cc3ccccc3o2)o1)N1CCCC1 [A3-9] the “CC10 … of 10% cytotoxicity” value ([2]; human) was 10.9 µM, the CC50 [3] was 197 µM and the “Inhibition of FluA (Table 5)” value [5] was roughly 29%**.

For CCCCCCCCCCCCCC(=O)O[C@@H]1[C@@H](C)[C@@]2(O)[C@@H](C=C(CO)C[C@]3(O)C(=O)C(C)=C[C@@H]23)[C@@H]2C(C)(C)[C@]12OC(C)=O [PMA, phorbol 12-myristate 13-acetate], the “HTS result” value [6] was “not originally recognized in the screen as an enhancer” and the “increase of viral titer” value [7] was 12 fold.

With Nc1nc(-c2ccc(Cl)cc2)cs1 [A35-3] the “CC10 … of 10% cytotoxicity” value ([2]; human) was 11.4 µM, the CC50 [3] was 165 µM and the “Inhibition of FluA (Table 5)” value [5] was “none**”.

For O=C(CSc1nnc(-c2cc3ccccc3[nH]2)o1)N1CCCC1 [A3-7], the “CC10 … of 10% cytotoxicity” value ([2]; human) was 15.2 µM, the CC50 [3] was 134 µM and the “Inhibition of FluA (Table 5)” value [5] was roughly 29%**.

For Cc1[nH]c2ccc(-c3nnc(SCC(=O)N(C(C)C)C(C)C)o3)cc2c1C [A3-4, 2-(5-(2,3-dimethyl-1H-indol-5-yl)-1,3,4-oxadiazol-2-ylthio)-N,N-diisopropylacetamide], the selectivity ratio [1] was 11, the “CC10 … of 10% cytotoxicity” value ([2]; human) was 10.7 µM and the CC50 [3] was 17.7 µM. For the same compound, the IC50 [4] was 1.65 µM and the “Inhibition of FluA (Table 5)” value [5] was roughly 87.5%**.

In the case of CCN(CC)C(=O)CSc1nnc(-c2ccc3[nH]c(C)c(C)c3c2)o1 [A3-2, 2-(5-(2,3-dimethyl-1H-indol-5-yl)-1,3,4-oxadiazol-2-ylthio)-N,N-diethylacetamide], the selectivity ratio [1] is reported as greater than 165, the “CC10 … of 10% cytotoxicity” value ([2]; human) is reported as 29 µM and the CC50 [3] is reported as 198 µM. The IC50 [4] was 1.2 µM and the “Inhibition of FluA (Table 5)” value [5] was roughly 97%**.

For O=C(CSc1nnc(-c2cccnc2)o1)N1CCCC1 [A3-11], the “CC10 … of 10% cytotoxicity” value ([2]; human) was 32.6 µM, the CC50 [3] was 249 µM and the “Inhibition of FluA (Table 5)” value [5] was “none**”.

In the case of CCN(CC)S(=O)(=O)c1ccc(-c2nnc(SCC(=O)N3CCCC3)o2)cc1 [A3-1], the “CC10 … of 10% cytotoxicity” value ([2]; human) is reported as 17.3 µM, the CC50 [3] is reported as 316 µM and the “Inhibition of FluA (Table 5)” value [5] is reported as roughly 29%**.

In the case of O=C(CSc1nnc(-c2ccncc2)o1)N1CCCC1 [A3-12], the “CC10 … of 10% cytotoxicity” value ([2]; human) is reported as 11.5 µM, the CC50 [3] is reported as 186 µM and the “Inhibition of FluA (Table 5)” value [5] is reported as roughly 29%**.

In the case of C[C@H]1O[C@@H](O[C@H]2[C@@H](O)C[C@H](O[C@H]3[C@@H](O)C[C@H](O[C@H]4CC[C@@]5(C)[C@H](CC[C@@H]6[C@@H]5C[C@@H](O)[C@]5(C)[C@@H](C7=CC(=O)OC7)CC[C@]65O)C4)O[C@@H]3C)O[C@@H]2C)C[C@H](O)[C@@H]1O [digoxin], the “HTS result” value [6] is reported as “potential influenza virus inhibitors”.
